According to patent US10815219B2, “2,4-diaminoquinazoline derivatives for inhibiting endoplasmic reticulum (ER) stress” (The Board of Regents of the University of Oklahoma, priority 2017, dated 2020):
Where two headings read alike, the source gives them in different places.

What was measured:
[1] = system: INS-1 cells; test: INS-1 cell survival after Tm treatment (CellTiter-Glo, intracellular ATP); type: cell-based, rat; details: for EC50: Rattus norvegicus, read-out: EC50
Description: A structure-activity-relationship (SAR) study was thus conducted to improve the weak potency of lead compound 5a. Newly synthesized or commercially available compounds were tested for their β-cell-protective activity against ER stress in rat INS-1 β-cells. […] Maximum activity value in the tables is reported as % rescue from Tm (0.1 μg/mL)-induced reduction of cell viability. The values for Tm treatment alone and control (DMSO, without Tm) treatment are designated as 0% and 100%, respectively in all tables. EC50 values (the concentrations that reach half-maximal activity) for INS-1 cell viability were calculated with GraphPad Prism from the data of ten 2-fold serial titration points in all tables. All experiments were performed in triplicate in all tables.
INS-1 cells or βTC6 cells were seeded at 3×10^3 cells/well in a 384-well plate and treated with compounds at the indicated concentrations. After 3 d treatment, the medium was aspirated and 20 μL/well of CellTiter-Glo reagent (Promega, WI, USA) was added for the detection of intracellular ATP levels. Cell viability was measured with an EnVision multilabel plate reader (PerkinElmer, MA, USA).

[2] = system: ATF4 and CHOP protein; test: Western blotting of ATF4 and CHOP in Tm-treated INS-1 cells; type: cell-based, rat; details: Tm 0.1 μg/mL, 9c 20 μM, FIG. 8C
Text: We then determined the effect of 9c on the activation of the PERK pathway in β cells under ER stress. Activated PERK phosphorylates eukaryotic translation initiator factor 2a (eIF2α), which in turn attenuates general protein synthesis to relieve ER load. EIF2α phosphorylation also allows the selective translation of ATF4 mRNA, which encodes a transcription factor that induces the expression of the pro-apoptotic gene C/EBP-homologous protein (CHOP). Thus, we used ATF4 and CHOP expression levels as markers of PERK pathway activation. […] Together, our results that 9c inhibited the ER stress-mediated activation of all three UPR pathways indicate that 9c protects β cell survival by alleviating ER stress.
INS-1 cells were seeded in 60-mm dishes at 8×10^5 cells/dish and treated for the indicated times. Cells were then washed with PBS and lysed with lysis buffer (Cell Signaling Technology, Danvers, Mass.) containing EDTA (Thermo, IL) and phosphatase inhibitors (Thermo). Aliquots of 20 μg total protein were separated on 7% SDS-PAGE gels (Life Technologies) and transferred to PVDF membranes (Life Technologies). The membranes were probed with primary antibodies followed by the appropriate HRP-conjugated secondary antibodies (goat anti-rabbit IgG and goat anti-mouse IgG, 1:3000; Santa Cruz Biotechnology, CA, USA). Blots were then developed. […]

[3] = system: INS-1 cells; test: Live-cell phase-contrast images of Tm-treated INS-1 cells; type: cell-based, rat; details: Tm 0.1 μg/mL, 9c 20 μM, 24 h, FIG. 4B
Description: (A) INS-1 cells were treated with or without Tm (0.1 μg/mL) in the presence of 9c (20 μM) or DMSO for the indicated times. Cleaved caspase-3 and PARP were determined by Western blotting. A-Tubulin was used as a loading control. The data shown are representative of 3 independent experiments. (B) INS-1 cells were treated with or without Tm (0.1 μg/mL) in the presence of 9c (20 μM) or DMSO for 24 h, and live-cell phase-contrast images were acquired (magnification 10×).
To determine whether the increase in cell viability following treatment with 9c was caused by a suppression of apoptotic cell death, levels of cleaved caspase-3 and cleaved PARP were assessed by Western blotting. Caspase-3, a member of executioner caspases, plays essential roles in initiating apoptotic signaling and executing the final stages of cell death as it is responsible for the proteolytic cleavage of many key proteins, such as the nuclear enzyme poly (ADP-ribose) polymerase (PARP) which is a family of proteins involved in a number of cellular processes involving DNA repair and cell death. […] However, upon severe ER stress, caspase 3 undergoes proteolytic cleavage to produce two subunits that dimerize to form the active enzyme, which in turns cleaves PARP.

[4] = system: primary human islets; test: Glucose-stimulated insulin secretion in Tm-treated primary human islets; type: cell-based; details: Tm 1 μg/mL, 48 h, 20 mM glucose, FIG. 9C
Text: We determined whether 9c suppresses the apoptosis of primary human β cells induced by Tm treatment as assessed by TUNEL, which detects fragmentation of DNA, a marker of apoptotic cell death. […] Next, we investigated whether 9c restored the Tm-induced insulin secretion defect. […] ER stress induces activation of three branches of UPR (PERK, IRE1α, and ATF6), leading to up-regulation of ATF4, XBP1s, Bip, […], CHOP and eventual activation caspase 3 and cell apoptosis, while diminishing the expression of PDX1, MAFA and insulin genes, leading to β cell dysfunction. Compound 9c protects β cell against ER stress-mediated dysfunction and death by down-regulating ATF4, XBP1s, Bip, GRP94, CHOP, and caspase 3 and up-regulating PDX1, MAFA and insulin genes.
INS-1 or primary human islet cells were plated in 96-well plates. The second day, Tm and compound 9c were added and maintained for 24 h (INS-1) or 48 h (human islets). […] The secreted insulin was measured with insulin ELISA kits (for mouse insulin from Millipore and for human insulin from LifeTech). Cells were lysed with RIPA buffer (50 mM Tris HCl pH 7.4, 1% NP-40, 0.25% sodium deoxycholate, 150 mM NaCl), and total cellular protein was determined with a Bradford protein assay. […]

SMILES: COc1ccc(CNc2nc(N3CCCCC3CO)nc3ccccc23)cc1 (racemic) [Compound 9c, (1-(4-((4-methoxybenzyl)amino)quinazolin-2-yl)piperidin-2-yl)methanol]
- Maximum activity ([1]; % rescue from Tm (0.1 μg/mL)-induced reduction of cell viability, 72 h, Tm alone 0%, DMSO 100%, Table 3): 80.4%
- maximum activity (rescue) ([1]; % rescue from Tm-induced reduction of INS-1 cell viability): 80%
- concentration exhibiting the maximum protective activity ([1]; INS-1 cells, Tm 0.1 μg/mL, 72 h, based on dose-dependent curves): 5 µM
- EC50 ([1]; INS1, 72 h, INS-1 cell viability, Tm 0.1 μg/mL, 72 h, ten 2-fold serial titration points, Table 3): 560 ± 180 nM
- EC50 ([1]; INS1, running text, INS-1 cell viability in presence of Tm): 560 nM
- ATF4 and CHOP protein levels [2]: decreased ATF4 and CHOP protein levels
- viable cells observed (phase-contrast) [3]: significantly more viable cells
- glucose-stimulated insulin secretion (GSIS) [4]: significantly reversed this effect and restored the Tm-impaired GSIS
